# Measured values reported in US8912221B2, “Biaryl amide derivatives” (Hoffmann-La Roche Inc., priority 2010, dated 2014).
# Experiments:
# [1] = molecular target: T1, Bradykinin-1 receptor (Homo sapiens (Human), UniProt P46663); experiment: Receptor Binding Assay; details: membranes from CHO-K1 cells overexpressing Bradykinin-1 receptor; 6 nM [3H]Kallidin (Des Arg10, Leu9); read-out: B1R Binding Ki
# Description: Binding assays were done with membranes from CHO-K1 cells overexpressing Bradykinin-1 receptor.
# For binding, Bradykinin-1 receptor antagonist compounds were added in various concentrations in 50 mM Tris pH 7.4, 5 mM MgCl2 together with 6 nM Kallidin (Des Arg^10, Leu^9), [3,4-Prolyl-3,4-^3H(N)] (PerkinElmer, 1.85-4.44 TBq/mmol) to 40 μg membrane protein containing approximately 1 fmol Bradykinin-1 receptor and incubated for 15 min at 27° C. To determine non-specific binding 10 μM Lys-(Des-Arg^9)-Bradykinin (Bachem) was added. Membranes were harvested through GF/B (glass fiber filter; PerkinElmer) plates, equilibrated with 0.5% polyethylenimine, air dried at 50° C. for 2 hr. Radioactivity was determined by counting in a topcounter (NXT Packard). Specific binding was defined as total binding minus nonspecific binding and typically represents about 90-95% of the total binding. Antagonist activity is expressed as Ki: inhibitor concentration required for 50% inhibition of specific binding corrected for the concentration of the radioligand.
# [2] = molecular target: T1, Bradykinin-1 receptor; experiment: Calcium Mobilization Assay; assay type: cell-based; details: GeneBLAzer Bradykinin (B1)-NFAT-bla CHO-K1 cells; antagonist activity, FLIPR; read-out: Ca mobilization IC50
# Description: Calcium Mobilization Assay
# GeneBLAzer® Bradykinin (B1)-NFAT-bla CHO-K1 cells (from Invitrogen) stably overexpressing the human bradykinin 1 receptor were cultured in DMEM (high glucose) supplemented with 10% dialysed FBS, 1% NEAA (non essential amino acids) 1% penicillin/streptomycin, 1% G418 and 0.1 mg/ml zeocin.
# For the assay cells were grown overnight in 384-well black clear flat bottom polystyrene plates (Costar) at 37° C. at 5% CO2. After washing with DMEM, 20 mM Hepes, 2.5 mM probenecid, 0.1% BSA (DMEM assay buffer) cells were loaded with 4 μM Fluo-4 in the same DMEM assay buffer for 2 hours at 30° C. Excess dye was removed and cells were washed with DMEM assay buffer. 384-well compound plates were prepared with DMEM assay buffer/0.5% DMSO with or without various concentrations of test compounds. Usually compounds were tested for agonist and antagonist activity.
# Test compounds were added to the assay plate and agonist activity was monitored as fluorescence for 80 seconds with a FLIPR (488 nm excitation; 510-570 nm emission; Molecular Devices). […] Increases in intracellular calcium are reported as maximum fluorescence after agonist exposure minus basal fluorescence before exposure. Antagonist activity is indicated as inhibitor concentration required for 50% inhibition of specific calcium increases.
# T1 sequence (P46663 whole entry): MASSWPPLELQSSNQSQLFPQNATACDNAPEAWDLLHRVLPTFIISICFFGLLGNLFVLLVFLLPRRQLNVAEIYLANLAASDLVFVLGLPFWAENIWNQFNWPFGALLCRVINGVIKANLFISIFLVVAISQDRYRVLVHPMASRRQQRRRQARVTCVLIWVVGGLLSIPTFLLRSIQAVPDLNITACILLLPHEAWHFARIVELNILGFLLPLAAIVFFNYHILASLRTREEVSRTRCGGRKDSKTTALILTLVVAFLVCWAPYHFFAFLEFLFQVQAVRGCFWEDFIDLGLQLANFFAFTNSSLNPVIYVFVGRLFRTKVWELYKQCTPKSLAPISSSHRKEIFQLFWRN
SMILES,Ki [1],IC50 [2]
"Cc1nc(-c2c(F)cc(Cl)cc2-c2cnc([C@@H](C)NC(=O)C3(NC(=O)c4cc(F)cc(C(F)(F)F)c4)COC3)c(F)c2)no1 [Example 1, 3-(3-Fluoro-5-trifluoromethyl-benzoylamino)-oxetane-3-carboxylic acid ((R)-1-{5-[5-chloro-3-fluoro-2-(5-methyl-[1,2,4]oxadiazol-3-yl)-phenyl]-3-fluoro-pyridin-2-yl}-ethyl)-amide]",2.6 nM,0.3 nM
"Cc1nc(-c2c(F)cc(Cl)cc2-c2cnc([C@@H](C)NC(=O)C3(NC(=O)C(F)(F)F)COC3)c(F)c2)no1 [Example 2, 3-(2,2,2-Trifluoro-acetylamino)-oxetane-3-carboxylic acid ((R)-1-{5-[5-chloro-3-fluoro-2-(5-methyl-[1,2,4]oxadiazol-3-yl)-phenyl]-3-fluoro-pyridin-2-yl}-ethyl)-amide]",11.9 nM,1.2 nM
"COC(=O)c1c(Cl)cccc1-c1ccc([C@@H](C)NC(=O)C2(NC(=O)C(F)(F)F)COC2)c(F)c1 [Example 6, 3-Chloro-3′-fluoro-4′-((R)-1-{[3-(2,2,2-trifluoro-acetylamino)-oxetane-3-carbonyl]-amino}-ethyl)-biphenyl-2-carboxylic acid methyl ester]",6.5 nM,2.2 nM
"COC(=O)c1c(Cl)cccc1-c1ccc([C@@H](C)NC(=O)C2(NC(=O)c3cncnc3)COC2)c(F)c1 [Example 7, 3-Chloro-3′-fluoro-4′-[(R)-1-({3-[(pyrimidine-5-carbonyl)-amino]-oxetane-3-carbonyl}-amino)-ethyl]-biphenyl-2-carboxylic acid methyl ester]",1.6 nM,0.1 nM
"COC(=O)c1c(Cl)cccc1-c1ccc([C@@H](C)NC(=O)C2(NC(=O)CC(F)(F)F)COC2)c(F)c1 [Example 8, 3-Chloro-3′-fluoro-4′-((R)-1-{[3-(3,3,3-trifluoro-propionylamino)-oxetane-3-carbonyl]-amino}-ethyl)-biphenyl-2-carboxylic acid methyl ester]",5.3 nM,0.4 nM
"Cc1cc(C(=O)NC2(C(=O)N[C@H](C)c3ncc(-c4cc(Cl)cc(Cl)c4OCC(F)F)cc3F)COC2)on1 [Example 9, 3-Methyl-isoxazole-5-carboxylic acid [3-((R)-1-{5-[3,5-dichloro-2-(2,2-difluoro-ethoxy)-phenyl]-3-fluoro-pyridin-2-yl}-ethylcarbamoyl)-oxetan-3-yl]-amide]",5.1 nM,1.1 nM

# Now from value to compound:
Ki [1],IC50 [2],SMILES
2.4 nM,0.4 nM,"Cc1nc(-c2c(F)cc(Cl)cc2-c2cnc([C@@H](C)NC(=O)C3(NC(=O)c4ccno4)COC3)c(F)c2)no1 [Example 3, Isoxazole-5-carboxylic acid [3-((R)-1-{5-[5-chloro-3-fluoro-2-(5-methyl-[1,2,4]oxadiazol-3-yl)-phenyl]-3-fluoro-pyridin-2-yl}-ethylcarbamoyl)-oxetan-3-yl]-amide]"
2.5 nM,0.2 nM,"Cc1cc(C(=O)NC2(C(=O)N[C@H](C)c3ncc(-c4cc(Cl)cc(F)c4-c4noc(C)n4)cc3F)COC2)on1 [Example 4, 3-Methyl-isoxazole-5-carboxylic acid [3-((R)-1-{5-[5-chloro-3-fluoro-2-(5-methyl-[1,2,4]oxadiazol-3-yl)-phenyl]-3-fluoro-pyridin-2-yl}-ethylcarbamoyl)-oxetan-3-yl]-amide]"
1.1 nM,0.1 nM,"Cc1nc(-c2c(F)cc(Cl)cc2-c2cnc([C@@H](C)NC(=O)C3(NC(=O)c4cncnc4)COC3)c(F)c2)no1 [Example 5, Pyrimidine-5-carboxylic acid [3-((R)-1-{5-[5-chloro-3-fluoro-2-(5-methyl-[1,2,4]oxadiazol-3-yl)-phenyl]-3-fluoro-pyridin-2-yl}-ethylcarbamoyl)-oxetan-3-yl]-amide]"
